Read-outs that look alike come from different tables or passages of the source.
What was measured:
[1] = Insulin requirement of diabetic patients on donepezil (case studies); format: in vivo, human; details: for insulin requirements at bedtime (lantus): patient eleven, before 35 units
[2] = Renal function (BUN, creatinine, ultrafiltration) in patients on donepezil (case studies); format: in vivo, human
[3] = Other clinical observations in diabetic patients on donepezil (case studies); format: in vivo, human
[4] = Coronary artery disease / congestive failure case studies: blood pressure and symptoms; format: in vivo, human
Source text: The present disclosure provides clinical evidence of the use of an acetyl cholinesterase inhibitor for treating coronary artery diseases including heart disease.

HIV = HIV infection case studies: viral load and CD4 count; format: in vivo, human; details: for viral load / CD4 count: on antivirals
Source text: The state of HIV infection is often monitored by CD4 counts (the higher the better) and circulating virus (the lower the better).

[5] = for fasting blood glucoses: patient eleven
[6] = Cephalization of body mass / weight loss case studies; details: patient seventeen; three months of donepezil 5 mg daily, no dieting or exercise program
[7] = patient twelve, over the next week of donepezil 5 mg daily
[8] = patient three, donepezil 5 mg daily, over the next week
[9] = patient six, two months of donepezil 5 mg daily

With `COc1cc2c(cc1OC)C(=O)C(CC1CCN(Cc3ccccc3)CC1)C2` (centres unmarked) [donepezil] the “evening dose of glargine insulin” value ([1]; patient eighteen, donepezil 10 mg orally daily, one month, before 5 units) was “discontinued”, the “insulin requirements at bedtime (lantus)” value ([1]; donepezil increased to 10 mg daily) was 12 units and the “insulin requirements at bedtime (lantus)” value ([1]; over one month of donepezil 5 mg orally daily) was 25 units. For the same compound, the “pre prandial insulin coverage” value ([1]; patient four, after one month of donepezil 5 mg daily) was “eliminated”, the “requirement for lantus insulin” value ([1]; patient nineteen, donepezil 5 then 10 mg, before 12 units at bedtime) was “no longer required lantus insulin” and the “daily insulin requirement over a 24 hour period” value ([1]; patient one, after an additional month (two months) of donepezil 5 mg daily, before approx. 32 units) was “approximately 12 units”. The “insulin requirement for 24 hour period” value ([1]; patient one, insulin pump, after one month of donepezil 5 mg orally daily, before approx. 32 units) was under 20 units, the “pre-prandial insulin coverage (Novolog)” value ([1]; patient twelve, over 4 days of donepezil 5 mg daily, before 8 units) was 4 units and the “evening dose of lantus insulin” value ([1]; patient twelve, over 4 days of donepezil 5 mg daily, before 30 units) was 20 units. The “evening dose of lantus” value [1, 7] was 10 units, the “pre prandial insulin coverage” value [1, 7] was “eliminated” and the “dose of Humulin N in the AM” value ([1]; po, 5 mg) was 10 units. For the same compound, the “evening dose of Humulin” value ([1]; po, 5 mg) was 20 units, the creatinine ([2]; patient fifteen, two months of donepezil 5 mg daily, before 1.8) was 1.1 and the BUN ([2]; patient fifteen, two months of donepezil 5 mg daily, before 40) was 24. For the same compound, the creatinine ([2]; patient fourteen, five weeks of donepezil 5 then 10 mg, admission 2.0) was 1.2, the ultrafiltration per dialysis ([2]; patient sixteen, hemodialysis, two months of donepezil 5 mg daily, before 5-6 liters three times weekly) was “less than 2 liter” and the creatinine ([2]; patient twelve, one month of donepezil 5 mg daily, admission 1.6) was 0.9. The BUN ([2]; patient twelve, one month of donepezil 5 mg daily, admission 38) was 21, the “lymphedema in lower extremities” value ([3]; patient five, over the next month of donepezil 5 mg orally daily) was “notable decline” and the “symptoms of painful diabetic polyneuropathy” value ([3]; patient four, one month of donepezil 5 mg daily) was “significantly reduced”. The electrocardiogram ([3]; patient fourteen (history of atrial fibrillation), donepezil 10 mg orally daily, about five weeks) was “normal sinus rhythm”, the foot drop ([3]; patient one, two months of donepezil 5 mg orally daily) was “resolved” and the “painful symptoms of diabetic polyneuropathy” value ([3]; patient seven, donepezil 5 mg orally daily) was “diminution”. The “edema in intact lower extremity” value ([3]; patient twelve, donepezil 5 mg daily) was “eliminated”, the blood pressure ([4]; patient eight, after one month, midodrine and diuretic discontinued) was 120/70 and the blood pressure ([4]; patient eight, ensuing week of donepezil 5 mg daily) was 110/60. The blood pressure ([4]; patient eight, over 5 days of donepezil 5 mg daily, midodrine decreased, before 85/60) was 100/60, the blood pressure ([4]; patient eighteen, next 10 days of donepezil 5 mg daily) was 100/70 and the blood pressure ([4]; patient eighteen, over 7 days of donepezil 5 mg daily, before 80/50) was 90/60. For the same compound, the blood pressure ([4]; patient seven, donepezil 5 mg daily, furosemide 20 mg every day) was 110/70, the diastolic blood pressure ([4]; patient seven, first two weeks of donepezil 5 mg daily) was “less than 80 mm Hg” and the diastolic blood pressure ([4]; patient seven, next two weeks of donepezil 5 mg daily) was 70 mm Hg. For the same compound, the blood pressure ([4]; patient seventeen, follow up one month later on donepezil 5 mg daily) was 120/60, the blood pressure ([4]; patient seventeen, ten days of donepezil 5 mg daily, midodrine discontinued) was “greater than 100/60” and the blood pressure [4, 8] was “normalized”. For the same compound, the “symptoms of congestive heart failure” value [4, 8] was “resolved”, the blood pressure ([4]; patient twenty, donepezil 5 mg daily, two weeks after nitrates and lisinopril discontinued) was 120/70 and the blood pressure ([4]; patient twenty, donepezil 5 mg daily, week after lisinopril decreased to 5 mg daily) was 110/70. For the same compound, the blood pressure ([4]; patient twenty, over two weeks of donepezil 5 mg daily, before 80/50) was 100/70, the shortness of breath ([4]; patient two, after one week of donepezil 5 mg daily) was “no further episodes of shortness of breath” and the blood pressure ([4]; patient two, after one week of donepezil 5 mg daily with furosemide 40 mg daily) was 100/60. The blood pressure ([4]; patient two, one week later, furosemide 20 mg every other day) was 110/70, the viral load (HIV; patient six, one month of donepezil 5 mg orally daily, before 1-2 million) was 1 million and the CD4 count (HIV; patient six, one month of donepezil 5 mg orally daily, before less than 20) was 26. For the same compound, the CD4 count (HIV; [9]) was 42, the viral load (HIV; [9]) was “non existent (below measurement detection)” and the CD4 count (HIV; patient thirteen, two months of donepezil 5 mg daily, before 24) was 36. For the same compound, the viral load (HIV; patient thirteen, two months of donepezil 5 mg daily, before over 4 million) was 1.6 million, the weight gained (HIV; patient thirteen, two months of donepezil 5 mg daily) was “over 15 pounds” and the fasting blood glucoses ([5]; donepezil 10 mg daily) was “less than 80 mg %”. The fasting blood glucoses ([5]; first month, donepezil 5 mg orally daily) was “less than 80 mg %”, the fasting blood sugars ([5]; patient fifteen, after one week of donepezil 5 mg daily) was “less than 100 mg %” and the preprandial blood sugars ([5]; patient five, after 3 days of donepezil 5 mg orally daily plus prandin 2 mg, before 100-120) was “less than 80 mg %”. For the same compound, the blood sugars ([5]; patient five, donepezil 5 mg daily, prandin discontinued, 1800 ADA diet) was “less than 110 mg %”, the “blood sugar at lunch, one episode” value ([5]; patient five, donepezil 5 mg orally daily plus prandin) was “less than 50 mg %” and the “other measured blood glucoses” value ([5]; patient nine, donepezil 10 mg, all oral hypoglycemic agents discontinued) was “less than 120 mg %”. For the same compound, the “fasting blood glucose levels” value ([5]; patient nine, over 7 days of donepezil 5 mg orally daily, micronase discontinued) was “less than 90 mg %”, the blood glucose values ([5]; patient nineteen, donepezil 10 mg, metformin discontinued, 1800 cal ADA diet) was “less than 120 mg %” and the fasting blood sugars ([5]; patient sixteen, following donepezil 5 mg daily, glipizide discontinued, before 150-200) was “less than 100 mg %”. For the same compound, the fasting blood sugars ([5]; patient ten, first week of donepezil 5 mg orally daily) was “less than 100 mg %”, the blood sugars ([5]; patient ten, next 7 days of donepezil 5 mg orally daily) was “less than 111 mg %” and the fasting blood sugars ([5]; patient twelve, first 4 days of donepezil 5 mg daily) was “less than 100 mg %”. The fasting blood sugars ([5]; patient twelve, next week of donepezil 5 mg daily) was “less than 100 mg %” and the “over all weight loss” value [6] was “greater than 20 pounds”.

From US20090081314A1, “Glycemic Control, Diabetes Treatment, and Other Treatments with Acetyl Cholinesterase Inhibitors” (priority 2007, published 2009)
